Measurements from patent publication US7704979B2, “Materials and methods for the treatment or prevention of obesity” (The University of Tennessee Research Foundation, priority 2000, dated 2010).
Values belong to the molecule of their own block, whether it stands above or below them.

Experiments:
[1] = test system: nVDR; settings: cited from earlier work
[2] = test system: human adipocytes; assay: GPDH activity in human adipocytes (Example 4); assay type: cell-based
Protocol: A human adipocyte cell line and primary-cultured human adipocytes were both used as cell models in this study. The human adipocyte cell line was differentiated from human preadipocytes obtained from Zen-Bio Inc. (Research Triangle Park, N.C.). Human preadipocytes were inoculated in Dulbecco's Modified Eagle' Medium (DMEM)/Ham' F-10 medium (F-10) (1:1, v/v) containing 10% fetal bovine serum (FBS), 15mM Hepes and antibiotics at a density of 30,000 cells/cm^2. Confluent monolayers of preadipocytes were induced to differentiate with a standard differentiation medium consisting of DMEM/F-10 (1:1, v/v) medium supplemented with 15 mM Hepes, 3% FBS, 33 μM biotin, 17 μM pantothenate, 100 nM insulin, 0.25 mM methylisobutylxanthine (MIX), 1 μM dexamethasome, 1 μM BRL49653 and antibiotics. Preadipocytes were maintained in this differentiation medium for 3 days and subsequently cultured in adipocyte medium in which BRL49653 and MIX were withdrawn. Cultures were re-fed every 2-3 days (Shi, H., et al., “Role of intracellular calcium in human adipocyte differentiation,” Phyisol. Genomics. (2000) pp. 75-82, vol. 3.). Primary-cultured human adipocytes were derived from human subcutaneous adipose tissue obtained from patients undergoing abdominal plastic surgery with no known history of metabolic disorders. This protocol was approved by the Institutional Review Board for Human Subjects and the Committee for Research Participation of the University of Tennessee. Adipocytes were isolated according to the teachings of (Shi, H., et al., “Role of the sulfonylurea receptor in regulating human adipocyte metabolism,” FASEB. J. (1999) pp. 1833-38, vol. 13.). Briefly, adipose tissue was first washed several times with Hank's Balanced Salt Solution, minced into small pieces and digested with 1 mg/ml type1 collagenase in a shaking water bath at 37° C. for 30 min. Adipocytes were then filtered through a sterile 500 μm nylon mesh and cultured in Dulbecco's Modified Eagle's Medium (DMEM) supplemented with 1% fetal bovine serum (FBS), 100 UI/ml penicillin, 100 μg/ml streptomycin and 50 μg/ml gentamicin. Cells were cultured in suspension and maintained in a thin layer at the top of culture media, which were changed every day. Cells were maintained viable and metabolically responsive under this culture condition for 7 days. FAS and GPDH activity was determined spectrophotometrically in crude cytosolic extracts of human adipocytes as previously described (Shi, H., et al., “Role of the sulfonylurea receptor in regulating human adipocyte metabolism,” FASEB. J. (1999) pp. 1833-38, vol. 13). Human adipocytes were homogenized in 250 mmol/L sucrose solution containing 1 mmol/L ethylenediamine-tetraacticacid (EDTA), 1 mmol/L dithiothreitol (DTT), and 100 μmol/L phenylmethylsulfonyl fluoride (PMSF) (pH 7.4). […]

[3] = test system: human adipocytes; assay: Human adipocyte [Ca2+]i, fura-2 imaging (Example 4); assay type: cell-based
[4] = test system: human adipocytes; assay: FAS mRNA expression in human adipocytes, Northern blot (Example 4); assay type: cell-based
Protocol: A human adipocyte cell line and primary-cultured human adipocytes were both used as cell models in this study. The human adipocyte cell line was differentiated from human preadipocytes obtained from Zen-Bio Inc. (Research Triangle Park, N.C.). Human preadipocytes were inoculated in Dulbecco's Modified Eagle' Medium (DMEM)/Ham' F-10 medium (F-10) (1:1, v/v) containing 10% fetal bovine serum (FBS), 15mM Hepes and antibiotics at a density of 30,000 cells/cm^2. Confluent monolayers of preadipocytes were induced to differentiate with a standard differentiation medium consisting of DMEM/F-10 (1:1, v/v) medium supplemented with 15 mM Hepes, 3% FBS, 33 μM biotin, 17 μM pantothenate, 100 nM insulin, 0.25 mM methylisobutylxanthine (MIX), 1 μM dexamethasome, 1 μM BRL49653 and antibiotics. Preadipocytes were maintained in this differentiation medium for 3 days and subsequently cultured in adipocyte medium in which BRL49653 and MIX were withdrawn. Cultures were re-fed every 2-3 days (Shi, H., et al., “Role of intracellular calcium in human adipocyte differentiation,” Phyisol. Genomics. (2000) pp. 75-82, vol. 3.). Primary-cultured human adipocytes were derived from human subcutaneous adipose tissue obtained from patients undergoing abdominal plastic surgery with no known history of metabolic disorders. This protocol was approved by the Institutional Review Board for Human Subjects and the Committee for Research Participation of the University of Tennessee. Adipocytes were isolated according to the teachings of (Shi, H., et al., “Role of the sulfonylurea receptor in regulating human adipocyte metabolism,” FASEB. J. (1999) pp. 1833-38, vol. 13.). Briefly, adipose tissue was first washed several times with Hank's Balanced Salt Solution, minced into small pieces and digested with 1 mg/ml type1 collagenase in a shaking water bath at 37° C. for 30 min. […] ZERO-Dscan software (Scanalytics, Inc, Fairfax, Va.) was used to quantitatively analyze these images.

[5] = test system: human adipocytes; assay: FAS activity in human adipocytes (Example 4); assay type: cell-based
Protocol: A human adipocyte cell line and primary-cultured human adipocytes were both used as cell models in this study. The human adipocyte cell line was differentiated from human preadipocytes obtained from Zen-Bio Inc. (Research Triangle Park, N.C.). Human preadipocytes were inoculated in Dulbecco's Modified Eagle' Medium (DMEM)/Ham' F-10 medium (F-10) (1:1, v/v) containing 10% fetal bovine serum (FBS), 15mM Hepes and antibiotics at a density of 30,000 cells/cm^2. Confluent monolayers of preadipocytes were induced to differentiate with a standard differentiation medium consisting of DMEM/F-10 (1:1, v/v) medium supplemented with 15 mM Hepes, 3% FBS, 33 μM biotin, 17 μM pantothenate, 100 nM insulin, 0.25 mM methylisobutylxanthine (MIX), 1 μM dexamethasome, 1 μM BRL49653 and antibiotics. Preadipocytes were maintained in this differentiation medium for 3 days and subsequently cultured in adipocyte medium in which BRL49653 and MIX were withdrawn. Cultures were re-fed every 2-3 days (Shi, H., et al., “Role of intracellular calcium in human adipocyte differentiation,” Phyisol. Genomics. (2000) pp. 75-82, vol. 3.). Primary-cultured human adipocytes were derived from human subcutaneous adipose tissue obtained from patients undergoing abdominal plastic surgery with no known history of metabolic disorders. This protocol was approved by the Institutional Review Board for Human Subjects and the Committee for Research Participation of the University of Tennessee. Adipocytes were isolated according to the teachings of (Shi, H., et al., “Role of the sulfonylurea receptor in regulating human adipocyte metabolism,” FASEB. J. (1999) pp. 1833-38, vol. 13.). […] FAS and GPDH activity was determined spectrophotometrically in crude cytosolic extracts of human adipocytes as previously described (Shi, H., et al., “Role of the sulfonylurea receptor in regulating human adipocyte metabolism,” FASEB. J. (1999) pp. 1833-38, vol. 13). […]

[6] = test system: human adipocytes; assay: Forskolin-stimulated lipolysis (glycerol release) in human adipocytes; assay type: cell-based; settings: data not shown
[7] = test system: human adipocytes; assay: Intracellular Ca2+ in primary cultures of human adipocytes (fura-2 fluorometry); assay type: cell-based; settings: read-out: EC50 for increase in intracellular Ca2+
Protocol: Human subcutaneous adipose tissue was obtained from patients with no known history of metabolic disorders undergoing abdominal plastic surgery. Adipocytes were isolated by washing, mincing, collagenase digestion, and filtration as described previously and cultured in Dulbecco's modified Eagle's medium supplemented with 1% fetal bovine serum, penicillin (100 IU/ml), streptomycin (100 μg/ml), and gentamicin (50 μg/ml). Cells were cultured in suspension and maintained in a thin layer at the top of the culture media, which was changed every day. Cells were studied about 72 hours after isolation and were serum-starved prior to study.
Intracellular Ca^2+ was determined fluorometrically as described previously. Cells were washed with HEPES-buffered salt solution loaded with fura-2-acetoxymethyl ester (10 μM) for 45 minutes at 37° C. in the dark with continuous shaking. Cells were then rinsed three times, resuspended, and intracellular Ca^2+ was measured using dual excitation (340 and 380 nm)/single emission (510 nm) fluorometry. After the establishment of a stable baseline, the response to 1,25-(OH)2-D or parathyroid hormone (10 pM-100 nM) or their respective vehicles was determined. Digitonin (25 μM) and Tris/EGTA (100 mM, pH 8.7) were used to for calibration to calculate the final intracellular Ca^2+.

[8] = test system: human adipocytes; assay: Isoproterenol-stimulated lipolysis in human adipocytes (Example 4); assay type: cell-based
Protocol: (§1) A human adipocyte cell line and primary-cultured human adipocytes were both used as cell models in this study. The human adipocyte cell line was differentiated from human preadipocytes obtained from Zen-Bio Inc. (Research Triangle Park, N.C.). Human preadipocytes were inoculated in Dulbecco's Modified Eagle' Medium (DMEM)/Ham' F-10 medium (F-10) (1:1, v/v) containing 10% fetal bovine serum (FBS), 15mM Hepes and antibiotics at a density of 30,000 cells/cm^2. Confluent monolayers of preadipocytes were induced to differentiate with a standard differentiation medium consisting of DMEM/F-10 (1:1, v/v) medium supplemented with 15 mM Hepes, 3% FBS, 33 μM biotin, 17 μM pantothenate, 100 nM insulin, 0.25 mM methylisobutylxanthine (MIX), 1 μM dexamethasome, 1 μM BRL49653 and antibiotics. Preadipocytes were maintained in this differentiation medium for 3 days and subsequently cultured in adipocyte medium in which BRL49653 and MIX were withdrawn. Cultures were re-fed every 2-3 days (Shi, H., et al., “Role of intracellular calcium in human adipocyte differentiation,” Phyisol. Genomics. (2000) pp. 75-82, vol. 3.). Primary-cultured human adipocytes were derived from human subcutaneous adipose tissue obtained from patients undergoing abdominal plastic surgery with no known history of metabolic disorders. […]

[9] = test system: human adipocytes; assay: Basal lipolysis (glycerol release) in human adipocytes (Example 4); assay type: cell-based
Protocol: as §1

Molecule: C=C1/C(=C\C=C2/CCC[C@]3(C)[C@@H]([C@H](C)CCCC(C)(C)O)CC[C@@H]23)C[C@@H](O)C[C@H]1O [1β,25-(OH)2-D3, 1β,25-dihydroxyvitamin D3]
effects on nVDR [1]: no effects
effect on 1α,25-(OH)2-D3 stimulated GPDH activity ([2]; human adipocytes): little effect
effect on 1α,25-(OH)2-lumisterol3 stimulated GPDH activity ([2]; human adipocytes): markedly inhibited
effect of pre-treatment on 1α,25-(OH)2-lumisterol3-induced increases in [Ca2+]i ([3]; pre-treatment of human adipocytes): completely prevented
effect on stimulation of FAS mRNA expression [4]: completely blocked
effect of pretreatment on stimulation of FAS activity ([5]; pretreatment of human adipocytes): completely prevented

EC50 [7]: ~10 nM
Molecule: parathyroid hormone [PTH]
effect on lipolysis [6]: little effect

Molecule: CC(C)NCC(O)c1ccc(O)c(O)c1 (centres unmarked) [isoproterenol]
increase in lipolysis [8]: 3.2 fold

Molecule: C[C@H](CCCC(C)(C)O)[C@H]1CC[C@H]2C3=CC=C4C[C@@H](O)C[C@H](O)[C@@]4(C)[C@@H]3CC[C@]12C [1α,25-(OH)2-lumisterol3, 1α,25-dihydroxylumisterol3]
binding affinity to nVDR [1]: low binding affinity
inhibition of adipocyte basal lipolysis [9]: 50%
stimulation of GPDH activity ([2]; human adipocytes): 2.8 fold
[Ca2+]i response in human adipocytes [3]: marked dose-responsive increases
inhibition of isoproterenol-stimulated lipolysis [8]: 53%
increase in FAS mRNA expression [4]: 2.5 fold
increase in FAS activity ([5]; human adipocytes): 2.5 fold

Molecule: C=C1/C(=C\C=C2/CCC[C@]3(C)[C@@H]([C@H](C)CCCC(C)(C)O)CC[C@@H]23)C[C@@H](O)C[C@@H]1O [1α,25-(OH)2-D3, 1α,25-Dihydroxyvitamin D3]
increase in human adipocyte GPDH activity ([2]; 5 nM): 50%
[Ca2+]i response in human adipocytes [3]: significant increase of [Ca^2+]i in human adipocyte in a dose-dependent manner
increase in FAS mRNA expression [4]: 2 fold
increase in adipocyte FAS activity ([5]; 5 nM, over 48 hrs): 40%
